experiment: not given; conditions: commonly used anionic surfactants, table values; cited from earlier work

Compound	Krafft Temperature
CCCCCCCCCCCCOS(=O)(=O)O.N [Ammonium lauryl sulfate (ALS), Ammonium lauryl sulfate]	10 °C
CCCCCCCCCCCCCCCCOS(=O)(=O)[O-].[Na+] [Sodium cetyl sulfate]	45.0 °C
CCCCCCCCCCOS(=O)(=O)[O-].[Na+] [Sodium decyl sulfate]	8.0 °C
CCCCCCCCCCCCCCCCS(=O)(=O)[O-].[Na+] [Sodium hexadecyl sulfonate]	57.0 °C
CCCCCCCCCCCCOS(=O)(=O)[O-].[Na+] [Sodium lauryl sulfate (SLS), Sodium lauryl sulfate]	16.0 °C
CCCCCCCCCCCCCC(=O)[O-].[Na+] [Sodium myristate]	39 °C
CCCCCCCCCCCCCCOS(=O)(=O)[O-].[Na+] [Sodium myristyl sulfate]	30.0 °C
CCCCCCCCCCCCCCS(=O)(=O)[O-].[Na+] [Sodium myristyl sulfonate]	48.0 °C
CCCCCCCCCCCCCCCC(=O)[O-].[Na+] [Sodium palmitate]	69 °C
CCCCCCCCCCCCCCCCCC(=O)[O-].[Na+] [Sodium stearate]	71 °C
CCCCCCCCCCCCCCCCCCOS(=O)(=O)[O-].[Na+] [Sodium stearyl sulfate]	56.0 °C
Sodium laureth sulfate [Sodium laureth sulfate (SLES)]	<0 °C

experiment: Krafft temperature determination of dilute aqueous surfactant in a water bath (dissolution and frothing); type: physicochemical; conditions: 0.012% ceteth-10 phosphate, 0.017% dicetyl phosphate, 0.014% sodium cetostearyl sulfate in distilled water
Experimental: 0.0012 grams of ceteth-10 phosphate (Moravek Lot 671-144-000-A-20190821-JHO) was weighed into a 20 mL glass scintillation vial. 10.0113 grams of distilled water was added to the scintillation vial and the vial was tightly capped and placed in a water bath. […] The surfactant remained as waxy particles sedimented on the bottom of the vial. After equilibration at 53.0° C. for 435 minutes, ceteth-10 phosphate had dissolved and the sample frothed when shaken. The Krafft temperature of a 0.012% ceteth-10 phosphate aqueous solution was determined to be 53.0° C.
0.0019 grams of dicetyl phosphate (Sigma dihexadecyl phosphate lot STBH2863) was weighed into a 20 mL glass scintillation vial. 11.2262 grams of distilled water was added to the scintillation vial and the vial was tightly capped and placed in a water bath. […] After equilibration at 58.0° C. for 450 minutes, dicetyl phosphate had dissolved and the sample frothed when shaken. The Krafft temperature of a 0.017% dicetyl phosphate aqueous solution was determined to be 58.0° C.
0.0024 grams of sodium cetostearyl sulfate (BASF Lanette E Granules Lot 0021826181) was weighed into a 20 mL glass scintillation vial. 17.0763 grams of distilled water was added to the scintillation vial and the vial was tightly capped and placed in a water bath. […] The Krafft temperature of a 0.014% sodium cetostearyl sulfate aqueous solution was determined to be 41.0° C.

Compound	Krafft Temperature
ceteth-10 phosphate [Ceteth - 10 phosphate]	53 °C

same assay, conditions: 0.012% ceteth-10 phosphate, 0.017% dicetyl phosphate, 0.014% sodium cetostearyl sulfate in distilled water; listed as ceteth-10 phosphate

Compound	Krafft Temperature
ceteth-10 phosphate [Ceteth - 10 phosphate]	53 °C

From patent publication US20240261308A1, “TREATMENT OF SKIN CONDITIONS USING HIGH KRAFFT TEMPERATURE ANIONIC SURFACTANTS” (ARCUTIS BIOTHERAPEUTICS, INC., priority 2020, published 2024)
